Values quoted from earlier work as cited in patent US20160066563A1, “COMPOSITIONS AND METHODS FOR COLLECTING, WASHING, CRYOPRESERVING, RECOVERING AND RETURN OF LIPOASPIRATES TO PHYSICIAN FOR AUTOLOGOUS ADIPOSE TRANSFER PROCEDURES” (priority 2012, published 2016).

Test system: cells
Conditions: at room temperature or body temperature

| Structure (SMILES) | toxicity to cells |
| --- | --- |
| OCC(O)CO [glycerol] | not toxic |
| C[S+](C)[O-] [DMSO, dimethylsulfoxide] | toxic to cells |
